Experiment: Stability of ascorbic acid in water of adjusted pH (DPPH and HPLC)
Format: physicochemical
Settings: 5 ppm in 25° C. water
Procedure: The free ascorbic-acid concentrations were measured immediately after they were prepared so that ascorbic acid was contained in an amount of 5 ppm in 25° C. water whose pH was adjusted to 1, 3, 4, 5, 7, 9 and 11, respectively, and after 24 hours. The free ascorbic acid concentrations were measured by the above-described DPPH radical elimination method and an HPLC method. The HPLC method uses an ODS as the column, and uses an ultraviolet spectrophotometer (wavelength 254 nm) as the detecting device to carry out the measurement. The results are illustrated in FIG. 12.

pH at which ascorbic acid could be stabilized more (24 hours): ≤ 3
pH boundary at or below which the stability of ascorbic acid improved (24 hours): ~5
SMILES: O=C1O[C@H]([C@@H](O)CO)C(O)=C1O [ascorbic acid]
stability of ascorbic acid versus pH (in words) (pH 1, 3, 4, 5, 7, 9, 11, immediately and after 24 hours (FIG. 12)): the lower the pH was the more the stability of ascorbic acid improved

Reference: patent US20060039986A1, “Functional material, process for producing functional material and functional member and environment modifying apparatus using the functional material” (Kabushiki Kaisha Erubu, priority 2004, published 2006)
